We go through five substances from patent publication US11260101B2, “Repair peptide for use in promoting post-traumatic tissue repair and regeneration, and application thereof” (Jinan University, priority 2017, dated 2022).

Assay [1] has as its system mouse fibroblasts Balb/c 3T3. Nature of the assay: Proliferation-promoting effect on fibroblasts Balb/c 3T3, CCK-8 method. In kind it is cell-based. The conditions noted are these: 24 hours treatment. As to the method: 2. Detection of the Proliferation-Promoting Effects of Repair Peptides R1, R2, R3 and R4, and the bFGF Respectively on Fibroblasts Balb/c 3T3 by Using the CCK-8 Method
The Ballb/c 3t3 cells were plated in 96-well plates at 4000 cells per well. After the cells were adhered and then starved for 24 hours, the cells were treated for 24 hours with the repair peptides R1, R2, R3 or R4, or the bFGF respectively at concentrations increased by 5 times. After that, the cells were treated with a CCK-8 reagent, and the optical density (OD) value of each well was detected by an enzyme-labeled instrument.
For orientation: Tetrazolium assays rely on reduction of a dye to a coloured formazan, in cell work by metabolically active cells.

Assay [2] deals with human umbilical vein endothelial cells (HUVEC). Nature of the assay: Proliferation-promoting effect on HUVEC, CCK-8 method. The format is cell-based. The conditions noted are these: 24 hours treatment. As to the method:
3. Detection of the Proliferation-Promoting Effects of Repair Peptides R1, R2, R3 and R4, and the bFGF Respectively on Human Umbilical Vein Endothelial Cells (HUVEC) by Using the CCK-8 Method
The HUVEC cells were plated in 96-well plates at 4000 cells per well. After the cells were adhered and then starved for 24 hours, the cells were treated for 24 hours with repair peptides R1, R2, R3 or R4, or the bFGF respectively at concentrations increased by 5 times. After that, the cells were treated with a CCK-8 reagent, and the OD value of each well was detected by an enzyme-labeled instrument.

In assay [3] the test system is chick embryo chorioallantoic membrane. The assay is described as follows: Angiogenesis in chick embryo chorioallantoic membrane, R1-R4 at the same concentration. The format is in vivo. The conditions noted are these: 100 μL at 100 ng/mL, three days culture. As to the method: 5. Detection of the Angiogenesis in the Chick Embryo Chorioallantoic Membrane Promoted by Repair Peptides R1, R2, R3 and R4
A fertilized egg cultured for 5 days was placed with the bigger head of the egg up, then the eggshell was removed. 100 μL of repair peptides R1, R2, R3 and R4 at concentration of 100 ng/mL was respectively added drop-wise into the exposed chick embryo chorioallantoic membrane, and the opening was sealed with clean filter paper. A blank control group treated with PBS solution was set up. Further cultured for three days, then the chick embryo chorioallantoic membrane was peeled off, observed under a stereoscope and photographed, and the image was analyzed by using the software, ImageJ plus.

The test system of another assay is skin wound. The assay is described as follows: Skin wound healing after back incision. The format is in vivo, Balb/c mice. Particulars: 10 μL drop-wise into 1-cm sutured incisions once a day. As to the method: 6. Detection of the Wound Healing in […] Skin Promoted by Repair Peptides R1, R2, R3 and R4
Balb/c mice were anesthetized by intra-peritoneal injection with 1% pentobarbital sodium (100 mg/kg), and the back was depilated and disinfected using conventional sterilization methods with 1% iodophor and 75% alcohol. Both sides of the back were cut symmetrically leaving 1-cm incisions. The incisions were sutured with two needles in the sterilized surgery. Then 10 μL of repair peptides R1, R2, R3 and R4 are respectively added drop-wise into the wounds. The wounds were open with no cotton yarn covered. A blank control group treated with PBS solution was set up.

The target of a further assay is FGFR2 (Homo sapiens, UniProt P21802). The assay is described as follows: Affinity to FGFR2 by isothermal titration calorimetry (ITC). The format is binding. Particulars: for Kd: read-out: dissociation constant Kd with FGFR2. An excerpt: 1. Detection of the Affinity Between the Repair Peptide R1 and FGFR2 by Using the ITC Method
(The K denoted the affinity constant, and the Kd denoted the dissociation constant. The larger the K was and the smaller the Kd was, the stronger the affinity was).

Assay [4] concerns chick embryo chorioallantoic membrane. The assay is described as follows: Angiogenesis in chick embryo chorioallantoic membrane, R1 at increasing concentrations. The conditions noted are these: 10 μL at concentrations increased by 25 times, three days culture. The format is in vivo. As to the method:
4. Angiogenesis in the Chick Embryo Chorioallantoic Membrane Promoted by the Repair Peptide R1
A fertilized egg cultured for 5 days was placed with the bigger head of the egg up. The eggshell was removed, and a silica gel ring was placed in the middle of the exposed chick embryo chorioallantoic membrane. 10 μL of the repair peptide R1 at concentrations increased by 25 times was respectively added drop-wise into the silica gel ring, and the opening was sealed with clean filter paper. A blank control group treated with PBS solution was set up. Further cultured for three days, then the chick embryo chorioallantoic membrane was peeled off, observed under a stereoscope and photographed, and the image was analyzed by using the software, ImageJ plus.

Where [5] appears, read: lower concentration groups (≤0.16 μM).

Positions of bridges follow the written chain, without caps; N, C: chain ends. No end group written: not given here.

Chain of FGFR2 (P21802 22-821, species assumed): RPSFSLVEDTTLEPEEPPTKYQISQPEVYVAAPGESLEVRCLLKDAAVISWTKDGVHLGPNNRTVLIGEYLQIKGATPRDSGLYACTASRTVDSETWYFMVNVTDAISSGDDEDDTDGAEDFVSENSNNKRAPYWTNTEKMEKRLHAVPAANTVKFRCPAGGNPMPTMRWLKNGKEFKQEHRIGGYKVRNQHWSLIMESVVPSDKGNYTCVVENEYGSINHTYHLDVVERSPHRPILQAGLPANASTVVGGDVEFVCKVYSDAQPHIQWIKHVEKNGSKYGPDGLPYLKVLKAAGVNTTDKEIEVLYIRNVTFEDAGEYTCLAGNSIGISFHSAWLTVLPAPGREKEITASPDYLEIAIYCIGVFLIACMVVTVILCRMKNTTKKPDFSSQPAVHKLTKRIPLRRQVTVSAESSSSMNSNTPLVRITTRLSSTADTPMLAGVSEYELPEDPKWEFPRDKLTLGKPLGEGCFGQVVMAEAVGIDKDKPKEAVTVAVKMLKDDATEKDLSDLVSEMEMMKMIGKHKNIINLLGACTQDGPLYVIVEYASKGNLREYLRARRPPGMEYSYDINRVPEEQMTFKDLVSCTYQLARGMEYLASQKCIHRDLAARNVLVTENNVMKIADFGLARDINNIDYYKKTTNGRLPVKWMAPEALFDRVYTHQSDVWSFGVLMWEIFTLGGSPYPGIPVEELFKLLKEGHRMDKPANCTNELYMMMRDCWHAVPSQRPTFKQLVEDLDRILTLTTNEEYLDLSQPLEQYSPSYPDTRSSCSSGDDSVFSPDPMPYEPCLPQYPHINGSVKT

Take GPANVEKEKEK (R3): the entries for the “proliferation-promoting activity on Balb/c 3T3 (OD, CCK-8)” value in assay [1] (higher concentration groups) and in assay [1] (lower concentration groups) were “still had a proliferation-promoting activity” and “comparable proliferation-promoting activity”, respectively. Besides, the “proliferation-promoting activity on HUVEC (OD, CCK-8)” value was “still had a proliferation-promoting activity” in assay [2] (higher concentration groups) and “comparable proliferation-promoting activity” in assay [2] (setting [5]). Moreover, in assay [3], the “capillaries in the chick embryo chorioallantoic membrane” value (shortened to “capillaries”) was “significantly increased”. In the assay on skin wound, the skin wound healing result is recorded as “the healing was sped up”.

For the substance KVKVGPANVKVKV (R2), the “proliferation-promoting activity on Balb/c 3T3 (OD, CCK-8)” value in assay [1] (higher concentration groups) is listed as “still had a proliferation-promoting activity”; in assay [1] (lower concentration groups) it was “comparable proliferation-promoting activity”. In addition, the “proliferation-promoting activity on HUVEC (OD, CCK-8)” value in assay [2] (higher concentration groups) is given as “still had a proliferation-promoting activity”; in assay [2] (setting [5]), “comparable proliferation-promoting activity”. Further, the “capillaries” value in assay [3] is on record as “significantly increased”. For the same substance, the skin wound healing result in the assay with skin wound is given as “the healing was sped up”.

On to “CGPANVETC (disulfide 1-9 (inferred)) [R4]”, for which the “proliferation-promoting activity on Balb/c 3T3 (OD, CCK-8)” value is “still had a proliferation-promoting activity” in assay [1] (higher concentration groups) and “comparable proliferation-promoting activity” in assay [1] (lower concentration groups). The “proliferation-promoting activity on HUVEC (OD, CCK-8)” value in assay [2] (higher concentration groups) was “still had a proliferation-promoting activity”; in assay [2] (setting [5]), “comparable proliferation-promoting activity”. In addition, in assay [3], the “capillaries” value was “significantly increased”. Further, the skin wound healing entry in the assay with skin wound is on record as “the healing was sped up”.

Take GPANVET [R1, GPANVET]: the “affinity constant K with FGFR2” value at FGFR2 stood at 7.35e+08 ± 2.1e+08 M⁻¹. Also, the “affinity to FGFR2 relative to that of bFGF” value on FGFR2 (R1-FGFR2 versus bFGF-FGFR2) was “about 4,500 times”. In addition, the Kd on FGFR2 was approximately 0.00137 µM. In addition, the “proliferation-promoting activity on Balb/c 3T3 (OD, CCK-8)” value in assay [1] (higher concentration groups) is on record as “still had a proliferation-promoting activity”; in assay [1] (lower concentration groups), “comparable proliferation-promoting activity”. The “proliferation-promoting activity on HUVEC (OD, CCK-8)” value in assay [2] (higher concentration groups) is “still had a proliferation-promoting activity”; in assay [2] (setting [5]), “comparable proliferation-promoting activity”. Further, the “capillaries” value is reported as “significantly increased with the increasing dose” in assay [4] and “significantly increased” in assay [3]. Besides, in the assay on skin wound, the skin wound healing result is listed as “the healing was sped up”.

“bFGF: recombinant basic Fibroblast Growth Factor (155 amino acids), clinically applied to wounds and burns”: the “affinity constant K with FGFR2” value with FGFR2 amounted to 162000 ± 25000 M⁻¹. Further, in the assay with FGFR2, the Kd is approximately 6.17 µM. In addition, the “proliferation-promoting activity on Balb/c 3T3 (OD, CCK-8)” value in assay [1] (higher concentration groups) is “cell proliferation was inhibited”; in assay [1] (lower concentration groups), “comparable proliferation-promoting activity”. Moreover, the “proliferation-promoting activity on HUVEC (OD, CCK-8)” value in assay [2] (higher concentration groups) is “cell proliferation was inhibited”; in assay [2] (setting [5]), “comparable proliferation-promoting activity”.

As a reminder, the Kd is the equilibrium constant for the complex coming apart.
